Data on 18 molecules can be found in patent US11306081B2, “Phenylacetamides as inhibitors of rock” (BRISTOL-MYERS SQUIBB COMPANY, priority 2017, dated 2022).

One experiment addresses ROCK2 (Homo sapiens (Human), UniProt O75116). Kind of experiment: ROCK assay (LABCHIP 3000 peptide phosphorylation assay). It is filed as biochemical. The note with it: 5 μM ATP, 1.5 μM peptide substrate, dose-response. The method, boiled down: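 Rho kinase variants in 20 mM HEPES pH 7.5, 20 mM MgCl2, 0.015% Brij-35, 4 mM DTT, 5 μM ATP, 1.5 μM FITC-AHA-AKRRRLSSLRA-OH peptide; DMSO <2%. EDTA-stopped; phosphorylated/non-phosphorylated peptide separated by microfluidic LabChip readout. Dose-response inhibition curve-fitted to give IC50.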

The subject of experiment [1] is neointimal formation in rats. The note with it: cited from earlier work.
Experiment [2] deals with spontaneously hypertensive rat, renal hypertensive rat and deoxycortisone acetate salt hypertensive rat models. Conditions: cited from earlier work.
Another experiment relates to Dahl salt-sensitive rats. The note with it: rat, in vivo; cited from earlier work.
The next experiment relates to rat stroke model. The note with it: in vivo; cited from earlier work.
Experiment [3] concerns porcine model of IL-1 beta-induced coronary stenosis. The note with it: long term treatment; cited from earlier work.

Molecules are shown by their SMILES. Where two headings read alike, the source gives them in different places.

ROCK2, sequence (O75116 whole entry, species assumed): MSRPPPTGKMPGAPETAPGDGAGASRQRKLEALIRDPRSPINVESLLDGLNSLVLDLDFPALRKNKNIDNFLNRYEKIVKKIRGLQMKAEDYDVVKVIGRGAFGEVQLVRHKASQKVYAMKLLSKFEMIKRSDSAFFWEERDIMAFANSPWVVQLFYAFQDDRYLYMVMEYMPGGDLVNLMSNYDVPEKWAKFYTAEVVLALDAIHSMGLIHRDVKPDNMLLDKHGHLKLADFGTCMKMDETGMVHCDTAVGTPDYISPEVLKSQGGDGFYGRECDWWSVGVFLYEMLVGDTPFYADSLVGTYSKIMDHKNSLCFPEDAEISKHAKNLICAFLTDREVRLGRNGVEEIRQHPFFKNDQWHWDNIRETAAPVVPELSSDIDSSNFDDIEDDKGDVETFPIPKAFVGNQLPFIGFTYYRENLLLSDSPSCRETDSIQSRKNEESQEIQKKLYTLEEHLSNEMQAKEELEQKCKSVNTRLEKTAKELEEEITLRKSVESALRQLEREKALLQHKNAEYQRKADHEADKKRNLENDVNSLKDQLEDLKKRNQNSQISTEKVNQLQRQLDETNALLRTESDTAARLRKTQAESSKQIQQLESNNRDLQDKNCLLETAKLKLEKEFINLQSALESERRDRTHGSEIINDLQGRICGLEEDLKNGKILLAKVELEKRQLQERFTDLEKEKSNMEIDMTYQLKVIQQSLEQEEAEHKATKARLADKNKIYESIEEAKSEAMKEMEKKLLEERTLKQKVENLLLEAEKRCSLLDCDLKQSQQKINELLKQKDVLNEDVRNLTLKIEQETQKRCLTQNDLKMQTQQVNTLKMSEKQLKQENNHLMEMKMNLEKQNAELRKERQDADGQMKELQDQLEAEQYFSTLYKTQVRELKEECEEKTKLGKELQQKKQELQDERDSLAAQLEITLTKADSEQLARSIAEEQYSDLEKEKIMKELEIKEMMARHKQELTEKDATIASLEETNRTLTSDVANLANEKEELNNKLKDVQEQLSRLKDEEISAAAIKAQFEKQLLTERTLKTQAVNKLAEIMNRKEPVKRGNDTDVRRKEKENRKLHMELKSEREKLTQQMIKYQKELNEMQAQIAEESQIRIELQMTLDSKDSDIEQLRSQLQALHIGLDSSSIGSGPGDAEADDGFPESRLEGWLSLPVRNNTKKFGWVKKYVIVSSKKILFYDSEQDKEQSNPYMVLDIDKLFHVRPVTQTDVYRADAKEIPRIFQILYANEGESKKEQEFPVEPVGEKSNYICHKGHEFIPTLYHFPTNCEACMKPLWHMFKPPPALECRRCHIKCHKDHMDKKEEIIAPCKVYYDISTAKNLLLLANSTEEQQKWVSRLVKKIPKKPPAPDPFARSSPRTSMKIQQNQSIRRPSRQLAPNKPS

With `COc1cccc2c1nc(NC(=O)Cc1ccc(Oc3ncccc3C(N)=O)c(F)c1)n2CC1CC1` [Example 163, 2-(4-(2-((1-(cyclo-propylmethyl)-4-methoxy-1H-benzo[d]imidazol-2-yl)amino)-2-oxoethyl)-2-fluorophenoxy)-nicotinamide], the IC50 (in general, the concentration needed to halve the response being measured) at ROCK2 stood at 16 nM.
`NC(=O)c1cccnc1Oc1ccc(CC(=O)Nc2nc3cccc(F)c3n2CC2CC2)cc1F` [Example 164, 2-(4-(2-((1-(cyclopropyl-methyl)-7-fluoro-1H-benzo[d]-imidazol-2-yl)-amino)-2-oxo-ethyl)-2-fluoro-phenoxy)nicotin-amide] had a concentration for half-maximal inhibition (IC50) at ROCK2 of 12 nM. This IC50 and that of the molecule before are within 1.5-fold of each other.
Take `NC(=O)c1cccnc1Oc1ccc(CC(=O)Nc2nc3cc(F)ccc3n2CC2CC2)cc1F` [Example 165]: at ROCK2, it took 26 nM to reach half-maximal inhibition (IC50).
With `NC(=O)c1cccnc1Oc1ccc(CC(=O)Nc2nc3ccc(F)cc3n2CC(F)F)cc1F` [Example 166, 2-(4-(2-((1-(2,2-difluoroethyl)-6-fluoro-1H-benzo[d]-imidazol-2-yl)-amino)-2-oxo-ethyl)-2-fluoro-phenoxy)nicotin-amide], at ROCK2, it took 24 nM to reach half-maximal inhibition (IC50).
For the molecule `NC(=O)c1cccnc1Oc1ccc(CC(=O)Nc2nc3ccccc3n2CC2CC2)cc1F` [Example 167, 2-(4-(2-((1-(cyclo-propylmethyl)-1H-benzo[d]-imidazol-2-yl)-amino)-2-oxo-ethyl)-2-fluoro-phenoxy)nicotin-amide], inhibition against ROCK2 was half-maximal at 25 nM (IC50). The IC50 values of the last two molecules are within 1.5-fold of each other.
The molecule `NC(=O)c1cccnc1Oc1ccc(CC(=O)Nc2nc3ccc(F)cc3n2CC2CC2)cc1F` [Example 168, 2-(4-(2-((1-(cyclopropyl-methyl)-6-fluoro-1H-benzo[d]-imidazol-2-yl)-amino)-2-oxo-ethyl)-2-fluoro-phenoxy)nicotin-amide] displayed an IC50 on ROCK2 of 18 nM.
With `NC(=O)c1cccnc1Oc1ccc(CC(=O)Nc2nc3c(F)cccc3n2CC(F)F)cc1F` [Example 169, 2-(4-(2-((1-(2,2-difluoroethyl)-4-fluoro-1H-benzo[d]-imidazol-2-yl)-amino)-2-oxo-ethyl)-2-fluoro-phenoxy)nicotin-amide], at ROCK2, the IC50 worked out at 13 nM.
In the case of `NC(=O)c1cccnc1Oc1ccc(CC(=O)Nc2nc3ccc(OCc4ccccc4)cc3n2CC2CC2)cc1F` [Example 170, 2-(4-(2-((6-(benzyloxy)-1-(cyclo-propylmethyl)-1H-benzo[d]-imidazol-2-yl)-amino)-2-oxo-ethyl)-2-fluoro-phenoxy)nicotin-amide], inhibition against ROCK2 was half-maximal at 31 nM (IC50).
Turning to `NC(=O)c1cccnc1Oc1ccc(CC(=O)Nc2nc3c(F)cccc3n2CC2CC2)cc1Cl` [Example 171, 2-(2-chloro-4-(2-((1-(cyclo-propylmethyl)-4-fluoro-1H-benzo[d]-imidazol-2-yl)-amino)-2-oxo-ethyl)phenoxy)-nicotinamide], at ROCK2, the concentration for half-maximal inhibition (IC50) is 3 nM. Compared with the last molecule, the IC50 is about 10-fold lower.
`NC(=O)c1cccnc1Oc1ccc(CC(=O)Nc2nc3ccc(F)cc3n2CC2CC2)cc1Cl` [Example 172, 2-(2-chloro-4-(2-((1-(cyclopropyl-methyl)-6-fluoro-1H-benzo[d]-imidazol-2-yl)-amino)-2-oxo-ethyl)phenoxy)-nicotinamide] showed an IC50 against ROCK2 of 7 nM. Compared with the last molecule, the IC50 is about 2.3-fold higher.
In the case of `NC(=O)c1cccnc1Oc1ccc(CC(=O)Nc2nc3c(F)cccc3n2CC(F)F)cc1Cl` [Example 173, 2-(2-chloro-4-(2-((1-(2,2-difluoro-ethyl)-4-fluoro-1H-benzo[d]-imidazol-2-yl)-amino)-2-oxo-ethyl)phenoxy)-nicotinamide], the concentration for half-maximal inhibition (IC50) against ROCK2 came out at 8 nM.
For `NC(=O)c1cccnc1Oc1ccc(CC(=O)Nc2nc3cc(F)ccc3n2CC2CC2)cc1Cl` [Example 174, 2-(2-chloro-4-(2-((1-(cyclo-propylmethyl)-5-fluoro-1H-benzo[d]-imidazol-2-yl)-amino)-2-oxo-ethyl)phenoxy)-nicotinamide], the IC50 on ROCK2 turned out to be 10 nM. This IC50 and that of the molecule before are within 1.5-fold of each other.
On ROCK2, `NC(=O)c1cccnc1Oc1ccc(CC(=O)Nc2nc3ccc(C(F)(F)F)cc3n2CC2CC2)cc1F` [Example 175, 2-(4-(2-((1-(cyclopropyl-methyl)-6-(trifluoro-methyl)-1H-benzo[d]-imidazol-2-yl)amino)-2-oxoethyl)-2-fluorophenoxy)-nicotinamide] registered an IC50 of 44 nM.
`NC(=O)c1cccnc1Oc1ccc(CC(=O)Nc2nc3ccc(C(F)(F)F)cc3n2CC2CC2)cc1Cl` [Example 176, 2-(2-chloro-4-(2-((1-(cyclo-propylmethyl)-6-(trifluoro-methyl)-1H-benzo[d]-imidazol-2-yl)-amino)-2-oxo-ethyl)phenoxy)-nicotinamide] displayed an IC50 on ROCK2 of 16 nM.
Turning to `NC(=O)c1cccnc1Oc1ccc(CC(=O)Nc2nc3cc(C(F)(F)F)ccc3n2CC2CC2)cc1Cl` [Example 177, 2-(2-chloro-4-(2-((1-(cyclo-propylmethyl)-5-(trifluoro-methyl)-1H-benzo[d]-imidazol-2-yl)-amino)-2-oxo-ethyl)phenoxy)-nicotinamide], the IC50 against ROCK2 was found to be 7 nM.
On the same count and under the same terms, the same measure for `CC(C)(O)COc1ccc2nc(NC(=O)Cc3ccc(Oc4ncccc4C(N)=O)c(F)c3)n(CC3CC3)c2c1` [Example 178, 2-(4-(2-((1-(cyclopropylmethyl)-6-(2-hydroxy-2-methylpropoxy)-1H-benzo[d]imidazol-2-yl)amino)-2-oxoethyl)-2-fluorophenoxy)nicotinamide]: 14 nM.
For the molecule `C[C@@H](N)[C@H]1CC[C@H](C(=O)Nc2ccncc2)CC1` [Example Y-27632, Y-27632], the neointimal formation result in experiment [1] is on record as “inhibited neointimal formation”. In addition, the blood pressure entry in experiment [2] (control rats) is reported as “only a minor effect on blood pressure”; in experiment [2] (three rat models of hypertension), “significantly decrease blood pressure”. Moreover, in the experiment with Dahl salt-sensitive rats, the “ventricular hypertrophy, fibrosis and function” value was “improve ventricular hypertrophy, fibrosis and function”.
In the case of `O=S(=O)(c1cccc2cnccc12)N1CCCNCC1` [fasudil], the “infarct size and neurologic deficit” value with rat stroke model was “reduce both the infarct size and neurologic deficit”. Also, in experiment [3], the coronary constrictive remodeling result was “promote a regression of coronary constrictive remodeling” and the coronary stenosis entry is “progressively reduce coronary stenosis”.
